# Laboratory results: patent publication US4716222A, “Substrates for hydrolases” (Hoechst Aktiengesellschaft, priority 1984, dated 1987)
# Assay: Test paper moistened with a blood plasma solution
# Conditions: paper impregnated with ethanol solution containing 0.01% substrate
# From the text: The crude product was purified on a chromatography column (stationary phase: silica gel; mobile phase: CHCl3 +glacial acetic acid 19:1).
smiles,measurement,value
Cc1ccc(S(=O)(=O)NCC(=O)N2CCC[C@H]2C(=O)N[C@@H](CCCNC(=N)N)C(=O)Oc2ccc3c(c2)oc2cc(=O)ccc-2[n+]3[O-])cc1 [Tos-Gly-Pro-Arg-resazurin],coloration of test paper,immediate blue-violet coloration
